CC(C)C[C@H](NC(=O)OCC1c2ccccc2-c2ccccc21)C(=O)O
solubility (mole fraction)
Conditions	in acetone	in acetonitrile	in ethanol	in ethyl acetate	in isopropanol	in methanol	in methyl acetate	in n-butanol	in n-propanol
283.15 K	0.0724	0.00333	0.0256	0.0468	0.0166	0.0288	0.0246	0.0198	0.0218
288.15 K	0.0773	0.00382	0.0284	0.0496	0.0185	0.033	0.0279	0.0216	0.0245
293.15 K	0.0838	0.0047	0.0324	0.0536	0.0209	0.0384	0.0318	0.0258	0.0278
298.15 K	0.0927	0.0055	0.0379	0.0607	0.0272	0.0455	0.0372	0.0295	0.0317
303.15 K	0.101	0.00689	0.0443	0.0692	0.0352	0.0543	0.0428	0.0354	0.0372
308.15 K	0.108	0.00832	0.0522	0.0782	0.0441	0.0621	0.0487	0.0456	0.0464
313.15 K	0.117	0.0104	0.0614	0.0862	0.0551	0.0771	0.0554	0.0565	0.0574
318.15 K	0.131	0.0126	0.0716	0.0961	0.0687	0.106	0.063	0.0687	0.0691
323.15 K	0.142	0.0166	0.0854	0.106	0.0844	0.137	0.0711	0.086	0.0853

Reference: BigSolDB 2.1
